Laboratory results from patent US5753617A, “Peptide inhibitors of cellular adhesion” (Centocor, Inc., priority 1995, dated 1998).
Read-outs that look alike come from different tables or passages of the source. Where a SMILES comes first, the peptide text is derived from it. Bridges are numbered along the chain shown (N, C = ends). [ ]: non-standard residue; d: D form. Ava = NCCCCC(=O)O

Key:
[1] = disulfide bond, water
P-selectin = biological target: T1, P-selectin (Homo sapiens, UniProt P16109); assay: Inhibition of human neutrophil adhesion to purified P-selectin immobilized on plastic wells; assay type: cell-based; settings: inhibiting the binding of human neutrophils to P-selectin
T1 construct: P-selectin is isolated from human platelet lysates; from tissue; host or cells: human platelets (outdated platelet packs from a blood bank)
T1 sequence (P16109 42-830): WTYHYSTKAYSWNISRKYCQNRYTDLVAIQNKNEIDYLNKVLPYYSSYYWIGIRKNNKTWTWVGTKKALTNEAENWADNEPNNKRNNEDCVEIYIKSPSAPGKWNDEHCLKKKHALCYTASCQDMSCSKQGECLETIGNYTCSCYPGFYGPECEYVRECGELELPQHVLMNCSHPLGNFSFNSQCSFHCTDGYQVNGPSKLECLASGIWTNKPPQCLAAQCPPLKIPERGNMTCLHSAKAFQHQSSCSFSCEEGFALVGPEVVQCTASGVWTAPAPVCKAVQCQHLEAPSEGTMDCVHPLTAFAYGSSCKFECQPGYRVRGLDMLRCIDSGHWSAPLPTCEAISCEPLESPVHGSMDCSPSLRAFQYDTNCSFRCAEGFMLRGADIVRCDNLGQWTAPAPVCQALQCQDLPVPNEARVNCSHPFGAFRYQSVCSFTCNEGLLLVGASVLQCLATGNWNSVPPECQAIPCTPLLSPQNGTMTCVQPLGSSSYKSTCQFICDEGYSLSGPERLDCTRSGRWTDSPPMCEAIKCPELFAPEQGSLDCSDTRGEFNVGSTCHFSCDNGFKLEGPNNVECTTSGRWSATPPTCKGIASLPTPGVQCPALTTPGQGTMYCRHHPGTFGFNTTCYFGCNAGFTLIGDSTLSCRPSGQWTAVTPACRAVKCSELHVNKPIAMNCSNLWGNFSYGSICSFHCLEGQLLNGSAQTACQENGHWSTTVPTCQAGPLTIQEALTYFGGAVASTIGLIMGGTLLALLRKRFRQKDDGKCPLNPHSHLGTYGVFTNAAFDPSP
Summary of the method: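 Isolated human neutrophils (2×10^5 per well) in HBSS with Ca2+/Mg2+ and HSA added to wells coated overnight at 4° C with platelet-derived P-selectin (5 micrograms/mL), HSA-blocked; 20 min at 22° C. Nonadherent cells removed by inverted centrifugation at 150 g; adherent cells quantified by myeloperoxidase activity.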

CC[C@@H](C)[C@H]1NC(=O)[C@H](NC(=O)[C@H](N)CCCNC(=N)N)CSSC[C@H](C(=O)N[C@@H](C(=O)N[C@H](Cc2c[nH]c3ccccc23)C(=O)N[C@@H](C(=O)N[C@H](Cc2c[nH]c3ccccc23)C(=O)N[C@@H](C(N)=O)C(C)C)[C@H](C)O)[C@H](C)CC)NC(=O)CNC1=O [(4)] (H-[dR][dC][dI]G[dC][dI][dW][dT][dW][dV]-NH2; disulfide 2-5)
ring closure, yield of all isomers ([1]; from CC[C@@H](C)[C@@H](NC(=O)[C@@H](CS)NC(=O)[C@H](N)CCCNC(=N)N)C(=O)NCC(=O)N[C@H](CS)C(=O)N[C@@H](C(=O)N[C@H](Cc1c[nH]c2ccccc12)C(=O)N[C@@H](C(=O)N[C@H](Cc1c[nH]c2ccccc12)C(=O)N[C@@H](C(N)=O)C(C)C)[C@H](C)O)[C@H](C)CC, DMSO, 0.405 mM, 16.0 h): 43.1% | IC50 (P-selectin): 41 µM

CC(C)[C@H](NC(=O)[C@H](Cc1c[nH]c2ccccc12)NC(=O)[C@@H](NC(=O)[C@H](Cc1c[nH]c2ccccc12)NC(=O)[C@@H]1CSSC[C@H](NC(=O)[C@H](CCCCN)NC(=O)[C@@H](N)CCCNC(=N)N)C(=O)NCC(=O)NCC(=O)N1)[C@@H](C)O)C(N)=O [(9)] (H-RKCGGCWTWV-NH2; disulfide 3-6)
ring closure, yield of all isomers ([1]; from CC(C)[C@H](NC(=O)[C@H](Cc1c[nH]c2ccccc12)NC(=O)[C@@H](NC(=O)[C@H](Cc1c[nH]c2ccccc12)NC(=O)[C@H](CS)NC(=O)CNC(=O)CNC(=O)[C@H](CS)NC(=O)[C@H](CCCCN)NC(=O)[C@@H](N)CCCNC(=N)N)[C@@H](C)O)C(N)=O, DMSO, 0.456 mM, 16.0 h): 4.4% | IC50 (P-selectin): 3 µM

CC(C)[C@@H](NC(=O)[C@@H](Cc1c[nH]c2ccccc12)NC(=O)[C@H](NC(=O)[C@@H](Cc1c[nH]c2ccccc12)NC(=O)[C@H]1CSSC[C@@H](NC(=O)[C@@H](CCCCN)NC(=O)[C@H](N)CCCNC(=N)N)C(=O)N[C@H](C)C(=O)N[C@@H](Cc2ccccc2)C(=O)N1)[C@H](C)O)C(N)=O [(11)] (H-[dR][dK][dC][dA]F[dC][dW][dT][dW][dV]-NH2; disulfide 3-6)
ring closure, yield of all isomers ([1]; from CC(C)[C@@H](NC(=O)[C@@H](Cc1c[nH]c2ccccc12)NC(=O)[C@H](NC(=O)[C@@H](Cc1c[nH]c2ccccc12)NC(=O)[C@@H](CS)NC(=O)[C@H](Cc1ccccc1)NC(=O)[C@@H](C)NC(=O)[C@@H](CS)NC(=O)[C@@H](CCCCN)NC(=O)[C@H](N)CCCNC(=N)N)[C@H](C)O)C(N)=O, air, Cu wire, dilute AcOH/NH4OH pH 8.5, 3.08 mM): 2.4% | IC50 (P-selectin): 7 µM

CC(C)[C@@H](NC(=O)[C@@H](Cc1c[nH]c2ccccc12)NC(=O)[C@H](NC(=O)[C@@H](Cc1c[nH]c2ccccc12)NC(=O)[C@H]1CSSC[C@@H](NC(=O)[C@@H](CCCCN)NC(=O)[C@H](N)CCCNC(=N)N)C(=O)N[C@H](Cc2ccccc2)C(=O)NCC(=O)N1)[C@H](C)O)C(N)=O [(12)] (H-[dR][dK][dC][dF]G[dC][dW][dT][dW][dV]-NH2; disulfide 3-6)
ring closure, yield of all isomers ([1]; from CC(C)[C@@H](NC(=O)[C@@H](Cc1c[nH]c2ccccc12)NC(=O)[C@H](NC(=O)[C@@H](Cc1c[nH]c2ccccc12)NC(=O)[C@@H](CS)NC(=O)CNC(=O)[C@@H](Cc1ccccc1)NC(=O)[C@@H](CS)NC(=O)[C@@H](CCCCN)NC(=O)[C@H](N)CCCNC(=N)N)[C@H](C)O)C(N)=O, DMSO, 0.255 mM, 16.0 h): 18.7% | IC50 (P-selectin): 48 µM

CC(C)[C@@H](NC(=O)[C@@H](Cc1c[nH]c2ccccc12)NC(=O)[C@H](NC(=O)[C@@H](Cc1c[nH]c2ccccc12)NC(=O)[C@H]1CSSC[C@@H](NC(=O)[C@@H](CCCCN)NC(=O)[C@H](N)CCCNC(=N)N)C(=O)NCC(=O)N[C@H](Cc2ccccc2)C(=O)N1)[C@H](C)O)C(N)=O [(13)] (H-[dR][dK][dC]G[dF][dC][dW][dT][dW][dV]-NH2; disulfide 3-6)
ring closure, yield of all isomers ([1]; from CC(C)[C@@H](NC(=O)[C@@H](Cc1c[nH]c2ccccc12)NC(=O)[C@H](NC(=O)[C@@H](Cc1c[nH]c2ccccc12)NC(=O)[C@@H](CS)NC(=O)[C@@H](Cc1ccccc1)NC(=O)CNC(=O)[C@@H](CS)NC(=O)[C@@H](CCCCN)NC(=O)[C@H](N)CCCNC(=N)N)[C@H](C)O)C(N)=O, DMSO, 0.242 mM, 16.0 h): 10.7% | IC50 (P-selectin): 50 µM

CC(C)[C@@H](NC(=O)[C@@H](Cc1c[nH]c2ccccc12)NC(=O)[C@H](NC(=O)[C@@H](Cc1c[nH]c2ccccc12)NC(=O)[C@H]1CSSC[C@@H](NC(=O)[C@@H](CCCCN)NC(=O)[C@H](N)CCCNC(=N)N)C(=O)N[C@@H](Cc2ccccc2)C(=O)NCC(=O)N1)[C@H](C)O)C(N)=O [(18)] (H-[dR][dK][dC]FG[dC][dW][dT][dW][dV]-NH2; disulfide 3-6)
ring closure, yield of all isomers ([1]; from CC(C)[C@@H](NC(=O)[C@@H](Cc1c[nH]c2ccccc12)NC(=O)[C@H](NC(=O)[C@@H](Cc1c[nH]c2ccccc12)NC(=O)[C@@H](CS)NC(=O)CNC(=O)[C@H](Cc1ccccc1)NC(=O)[C@@H](CS)NC(=O)[C@@H](CCCCN)NC(=O)[C@H](N)CCCNC(=N)N)[C@H](C)O)C(N)=O, DMSO, 0.253 mM): 13.7% | ring closure, yield of all isomers ([1]; from CC(C)[C@@H](NC(=O)[C@@H](Cc1c[nH]c2ccccc12)NC(=O)[C@H](NC(=O)[C@@H](Cc1c[nH]c2ccccc12)NC(=O)[C@@H](CS)NC(=O)CNC(=O)[C@H](Cc1ccccc1)NC(=O)[C@@H](CS)NC(=O)[C@@H](CCCCN)NC(=O)[C@H](N)CCCNC(=N)N)[C@H](C)O)C(N)=O, DMSO, 0.253 mM, 16.0 h): 13.7% | IC50 (P-selectin): 49 µM

CC(C)[C@@H](NC(=O)[C@@H](Cc1c[nH]c2ccccc12)NC(=O)[C@H](NC(=O)[C@@H](Cc1c[nH]c2ccccc12)NC(=O)[C@H]1CSSC[C@@H](NC(=O)[C@@H](CCCCN)NC(=O)[C@H](N)CCCNC(=N)N)C(=O)NCCCCC(=O)N1)[C@H](C)O)C(N)=O [(21)] (H-[dR][dK][dC][Ava][dC][dW][dT][dW][dV]-NH2; disulfide 3-5)
ring closure, yield of all isomers ([1]; from CC(C)[C@@H](NC(=O)[C@@H](Cc1c[nH]c2ccccc12)NC(=O)[C@H](NC(=O)[C@@H](Cc1c[nH]c2ccccc12)NC(=O)[C@@H](CS)NC(=O)CCCCNC(=O)[C@@H](CS)NC(=O)[C@@H](CCCCN)NC(=O)[C@H](N)CCCNC(=N)N)[C@H](C)O)C(N)=O, DMSO, 0.241 mM, 16.0 h): 13.2% | IC50 (P-selectin): 23 µM

CC(C)[C@@H](NC(=O)[C@@H](Cc1c[nH]c2ccccc12)NC(=O)[C@H](NC(=O)[C@@H](Cc1c[nH]c2ccccc12)NC(=O)[C@H]1CSSC[C@@H](NC(=O)[C@@H](CCCCN)NC(=O)[C@H](N)CCCNC(=N)N)C(=O)NCC(=O)NCC(=O)N1)[C@H](C)O)C(N)=O [(25)] (H-[dR][dK][dC]GG[dC][dW][dT][dW][dV]-NH2; disulfide 3-6)
ring closure, yield of all isomers ([1]; from CC(C)[C@@H](NC(=O)[C@@H](Cc1cn(C=O)c2ccccc12)NC(=O)[C@H](NC(=O)[C@@H](Cc1cn(C=O)c2ccccc12)NC(=O)[C@@H](CS)NC(=O)CNC(=O)CNC(=O)[C@@H](CS)NC(=O)[C@@H](CCCCN)NC(=O)[C@H](N)CCCNC(=N)N)[C@H](C)O)C(N)=O, DMSO, 1.4 mM, 16.0 h, 2 steps): 2.4% | IC50 (P-selectin): 17 µM

CC(C)[C@H](NC(=O)[C@H](Cc1c[nH]c2ccccc12)NC(=O)[C@@H](NC(=O)[C@H](Cc1c[nH]c2ccccc12)NC(=O)[C@@H]1CSSC[C@H](NC(=O)[C@@H](N)CCCCN)C(=O)NCC(=O)NCC(=O)N1)[C@@H](C)O)C(N)=O [(27)] (H-KCGGCWTWV-NH2; disulfide 2-5)
ring closure, yield of all isomers ([1]; from CC(C)[C@H](NC(=O)[C@H](Cc1c[nH]c2ccccc12)NC(=O)[C@@H](NC(=O)[C@H](Cc1c[nH]c2ccccc12)NC(=O)[C@H](CS)NC(=O)CNC(=O)CNC(=O)[C@H](CS)NC(=O)[C@@H](N)CCCCN)[C@@H](C)O)C(N)=O, K3Fe(CN)6/NH4OH (half) and DMSO (half), 0.37 mM, 16.0 h): 10.9% | IC50 (P-selectin): 22 µM

CC(C)[C@H](NC(=O)[C@H](Cc1c[nH]c2ccccc12)NC(=O)[C@@H](NC(=O)[C@H](Cc1c[nH]c2ccccc12)NC(=O)[C@@H]1CSSC[C@H](N)C(=O)NCC(=O)NCC(=O)N1)[C@@H](C)O)C(N)=O [(29)] (H-CGGCWTWV-NH2; disulfide 1-4)
ring closure, yield of all isomers ([1]; from CC(C)[C@H](NC(=O)[C@H](Cc1c[nH]c2ccccc12)NC(=O)[C@@H](NC(=O)[C@H](Cc1c[nH]c2ccccc12)NC(=O)[C@H](CS)NC(=O)CNC(=O)CNC(=O)[C@@H](N)CS)[C@@H](C)O)C(N)=O, DMSO, 0.285 mM, 16.0 h): 8.5% | IC50 (P-selectin): 325 µM
